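Grown in 96-well plates, cells were treated for 48 hours with each compound at five concentrations. Insufficient inhibition: endpoint recorded as highest concentration tested. Definition used: TGI = concentration required for complete inhibition of growth.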
Tests used:
Experiment in all cases: inhibition of tumour cell growth, NCI panel, 48 h
[1] = tested on: 786-0 renal
[2] = tested on: A498 renal
[3] = tested on: A549 NSCLC
[4] = tested on: ACHN renal
[5] = tested on: CAKI-1 renal
[6] = tested on: CCRF-CEM leukemia
[7] = tested on: COLO 205 colon
[8] = tested on: DLD-1 colon
[9] = tested on: DMS 114 small cell lung
[10] = tested on: DMS 273 small cell lung
[11] = tested on: EKVX NSCLC
[12] = tested on: HCC-2998 colon
[13] = tested on: HCT-116 colon
[14] = tested on: HCT-15 colon
[15] = tested on: HL-60(TB) leukemia
[16] = tested on: HOP-18 NSCLC
[17] = tested on: HOP-62 NSCLC
[18] = tested on: HOP-92 NSCLC
[19] = tested on: HT29 colon
[20] = tested on: IGROV1 ovarian
[21] = tested on: K-562 leukemia
[22] = tested on: KM12 colon
[23] = tested on: KM20L2 colon
[24] = tested on: LOX IMVI melanoma
[25] = tested on: LXFL 529 NSCLC
[26] = tested on: M14 melanoma
[27] = tested on: M19-MEL melanoma
[28] = tested on: MALME-3M melanoma
[29] = tested on: MOLT-4 leukemia
[30] = tested on: NCI-H226 lung
[31] = tested on: NCI-H23 lung
[32] = tested on: NCI-H460 lung
[33] = tested on: NCI-H522 lung
[34] = tested on: OVCAR-3 ovarian
[35] = tested on: OVCAR-4 ovarian
[36] = tested on: OVCAR-5 ovarian
[37] = tested on: OVCAR-8 ovarian
[38] = tested on: RPMI-8226 leukemia
[39] = tested on: RXF 393 renal
[40] = tested on: SF-268 CNS
[41] = tested on: SF-295 CNS
[42] = tested on: SF-539 CNS
[43] = tested on: SK-MEL-2 melanoma
[44] = tested on: SK-MEL-28 melanoma
[45] = tested on: SK-MEL-5 melanoma
[46] = tested on: SK-OV-3 ovarian
[47] = tested on: SN12C renal
[48] = tested on: SNB-19 CNS
[49] = tested on: SNB-75 CNS
[50] = tested on: SNB-78 CNS
[51] = tested on: SR leukemia
[52] = tested on: SW-620 colon
[53] = tested on: TK-10 renal
[54] = tested on: U251 CNS
[55] = tested on: UACC-257 melanoma
[56] = tested on: UACC-62 melanoma
[57] = tested on: UO-31 renal
[58] = tested on: XF 498 CNS

Cn1c(=O)c2c3ccccc3c(C(=O)c3ccccc3)n2c2ccccc21
TGI [1]: > 100 µM
TGI [2]: > 100 µM
TGI [3]: > 100 µM
TGI [4]: > 100 µM
TGI [5]: > 100 µM
TGI [6]: > 31.6 µM
TGI [7]: > 100 µM
TGI [8]: > 100 µM
TGI [9]: > 100 µM
TGI [10]: > 100 µM
TGI [11]: > 100 µM
TGI [12]: > 100 µM
TGI [13]: > 100 µM
TGI [14]: > 100 µM
TGI [15]: > 100 µM
TGI [16]: > 100 µM
TGI [17]: > 100 µM
TGI [18]: > 84.2 µM
TGI [19]: > 100 µM
TGI [20]: > 100 µM
TGI [21]: > 100 µM
TGI [22]: > 100 µM
TGI [23]: > 100 µM
TGI [24]: > 100 µM
TGI [25]: > 100 µM
TGI [26]: > 100 µM
TGI [27]: > 100 µM
TGI [28]: > 100 µM
TGI [29]: > 100 µM
TGI [30]: > 100 µM
TGI [31]: > 100 µM
TGI [32]: > 100 µM
TGI [33]: > 100 µM
TGI [34]: > 100 µM
TGI [35]: > 100 µM
TGI [36]: > 100 µM
TGI [37]: > 100 µM
TGI [38]: > 100 µM
TGI [39]: > 100 µM
TGI [40]: > 100 µM
TGI [41]: > 100 µM
TGI [42]: > 100 µM
TGI [43]: > 100 µM
TGI [44]: > 100 µM
TGI [45]: > 100 µM
TGI [46]: > 100 µM
TGI [47]: > 100 µM
TGI [48]: > 100 µM
TGI [49]: 15 µM
TGI [50]: > 100 µM
TGI [51]: > 100 µM
TGI [52]: > 100 µM
TGI [53]: > 96.6 µM
TGI [54]: > 100 µM
TGI [55]: > 100 µM
TGI [56]: > 30.1 µM
TGI [57]: > 100 µM
TGI [58]: > 100 µM

CC#CC(OCC)(OCC)OCC
TGI [1]: > 100 µM
TGI [2]: > 100 µM
TGI [3]: > 100 µM
TGI [4]: > 100 µM
TGI [5]: > 100 µM
TGI [6]: > 100 µM
TGI [7]: > 100 µM
TGI [8]: > 100 µM
TGI [9]: 74.3 µM
TGI [10]: 49.1 µM
TGI [11]: > 100 µM
TGI [12]: > 100 µM
TGI [13]: > 100 µM
TGI [14]: > 100 µM
TGI [15]: > 100 µM
TGI [16]: > 100 µM
TGI [17]: > 100 µM
TGI [18]: > 100 µM
TGI [19]: > 100 µM
TGI [20]: > 100 µM
TGI [21]: > 100 µM
TGI [22]: > 100 µM
TGI [23]: > 100 µM
TGI [24]: 39.9 µM
TGI [25]: > 100 µM
TGI [26]: > 100 µM
TGI [27]: > 100 µM
TGI [28]: > 100 µM
TGI [29]: > 100 µM
TGI [30]: > 100 µM
TGI [31]: > 100 µM
TGI [32]: > 100 µM
TGI [33]: > 100 µM
TGI [34]: > 100 µM
TGI [35]: > 100 µM
TGI [36]: > 100 µM
TGI [37]: > 100 µM
TGI [38]: > 100 µM
TGI [39]: > 100 µM
TGI [40]: > 100 µM
TGI [41]: > 100 µM
TGI [42]: > 100 µM
TGI [43]: > 100 µM
TGI [44]: > 100 µM
TGI [45]: > 100 µM
TGI [46]: > 100 µM
TGI [47]: > 100 µM
TGI [48]: > 100 µM
TGI [49]: > 100 µM
TGI [50]: > 100 µM
TGI [51]: > 100 µM
TGI [53]: > 100 µM
TGI [54]: > 100 µM
TGI [55]: > 100 µM
TGI [56]: > 100 µM
TGI [57]: > 100 µM
TGI [58]: > 100 µM

CCOC(=O)C(Cc1ccc([N+](=O)[O-])cc1)NC(=O)CC1c2ccccc2-c2ccccc21 (stereo not given)
TGI [1]: > 100 µM
TGI [2]: > 100 µM
TGI [3]: > 100 µM
TGI [4]: 45.1 µM
TGI [6]: > 100 µM
TGI [7]: > 100 µM
TGI [8]: > 100 µM
TGI [9]: > 100 µM
TGI [10]: > 100 µM
TGI [11]: > 100 µM
TGI [12]: > 100 µM
TGI [13]: > 100 µM
TGI [14]: > 100 µM
TGI [15]: > 100 µM
TGI [16]: > 100 µM
TGI [17]: > 100 µM
TGI [18]: 56.5 µM
TGI [19]: > 100 µM
TGI [20]: > 100 µM
TGI [21]: > 100 µM
TGI [22]: > 100 µM
TGI [23]: > 100 µM
TGI [24]: > 100 µM
TGI [25]: > 100 µM
TGI [26]: 57.9 µM
TGI [27]: 38.9 µM
TGI [28]: 42.3 µM
TGI [29]: > 100 µM
TGI [30]: > 100 µM
TGI [31]: > 100 µM
TGI [32]: > 100 µM
TGI [33]: > 100 µM
TGI [34]: > 100 µM
TGI [35]: > 100 µM
TGI [37]: > 100 µM
TGI [38]: > 100 µM
TGI [39]: 41.6 µM
TGI [40]: > 100 µM
TGI [41]: > 100 µM
TGI [42]: 77.4 µM
TGI [43]: > 100 µM
TGI [44]: > 100 µM
TGI [46]: > 100 µM
TGI [47]: > 100 µM
TGI [48]: > 100 µM
TGI [49]: 68.8 µM
TGI [50]: 65.3 µM
TGI [51]: > 100 µM
TGI [52]: > 100 µM
TGI [53]: > 100 µM
TGI [54]: > 100 µM
TGI [55]: 91.5 µM
TGI [56]: > 100 µM
TGI [57]: > 100 µM
TGI [58]: 53.6 µM
